Results taken from patent US5994363A (priority 1998, dated 1999).

Legend:
[1] = Apomorphine in human patients: erection and side effects (prior studies / general findings); type: in vivo; details: apomorphine dosage forms
Description: The specific mechanisms by which apomorphine acts to produce an erectile response in a human patient are not yet completely understood, however.

[2] = Nerve stimulated clitoral and vaginal wall blood flow in females; type: in vivo; details: administration to females
[3] = Plasma concentration profile in dog at day 1, 90 and 180 (Example 2); type: in vivo; details: day 1, day 90 or day 180, 0.04, 0.1, 0.4 mg/kg
Description: To assess whether the reduction in side effects could be attributable to changes in pharmacokinetic response, a plasma concentration profile study was conducted for each dosage group at day 1, day 90 and day 180.

[4] = Adverse events in escalating dose tolerance study in psychogenic male erectile dysfunction (Example 5); type: in vivo, human; details: in vivo
Description: Example 5-Summary. This clinical study was conducted in three phases. In Phase 1 subjects were selected from among patients complaining of impotence by a thorough physiological and psychological assessment. For example, one step in the assessment process required candidates to undergo Rigiscan measurement of penile rigidity and circumference following administration of a placebo tablet in single blind fashion. Phase 2 consisted of a dose escalation (4, 6, and 8 mg tablets) administered on 4 visits. An out-patient phase was conducted as Phase 3. Patients were given apomorphine HCL tablets to use at home.
Example-5 Detailed Description (Clinical Study #94-03-01). The human study was conducted in three separate phases. Phase 1 consisted of selecting appropriate subjects and obtaining baseline information on sexual performance for each subject.
They were tested on four separate days at four separate doses (placebo and three active medication doses) with an interval of no less than six days between visits (i.e., one visit per week).
If the trial was aborted, the patient was given the choice of having Gravol 50 mg p.o. (an anti-emetic) administered at that time or enduring the adverse events as they arose. In either event, the patient was monitored by the research clinician until all side-effects had subsided. The patient was asked to return the following week for the next scheduled dose.
During the five-week, home-use phase, subjects were to attempt coitus at least once each week after taking a single APO tablet. After each attempt, the subject and their partner completed a Sexual Function questionnaire (See FIGS. 15 and 16) which was later evaluated and used for final statistical analysis.
The data was analyzed by an inspection of the reported adverse events, the given dose of apomorphine and the phase of the study, i.e., in-patient (dose escalating) or take-home (constant dose) phases.

[5] = cited from earlier work
[6] = cited from earlier work; remark: listed apart in the source
clinical = details: human, plasma
[7] = cited from earlier work; remark: listed apart in the source
[8] = Plasma concentration or dose threshold for adverse effects
[9] = Bioavailability by route of administration in dog (Example 3); details: in vivo
[10] = Pharmacokinetic comparison of 4- and 8-mg sublingual tablets with 1 mg i.v. in healthy male volunteers (Example 4)

## CN1CCc2cccc3c2[C@H]1Cc1ccc(O)c(O)c1-3 [apomorphine, (R)-5,6,6a,7-Tetrahydro-6-methyl-4H-dibenzo-[de,g] quinoline-10,11-diol]
[1]
  effectiveness in Parkinson's disease and psychogenic erectile dysfunction: effective
[2]
  nerve stimulated clitoral intracavernosal and vaginal wall blood flow: increases nerve stimulated clitoral intracavernosal blood flow and vaginal wall blood flow
[3]
  AUC, distribution, or elimination over repeated dosing: No evidence of significant changes
[4]
  blood or urinalysis values: no clinically significant changes
[5]; large doses, mammals such as humans, dogs
  nausea and vomiting after large doses: usually results in nausea and vomiting
[5]; subcutaneous, recognized use as an emetic
  emetic dose: ~5 milligram
[6]; erectile responses in human males
  side effects / therapeutic usefulness (Segraves): too many side effects to have therapeutic usefulness
[6]; psychogenic impotence
  erection in psychogenic male patients: can indeed induce an erection in a psychogenic patient
  side effects at dose required for significant erectile response: usually accompanied by nausea or other serious undesirable side effects, including hypertension, flushing and diaphoresis (sweating)
clinical; 4 mg
  AUC: 0.527 ng·h/mL
  Cmax: 0.83 ng/mL
clinical; 8 mg
  AUC: 4.72 ng·h/mL
clinical; iv, 1 mg
  AUC: 3.45 ng·h/mL
  Cmax: 8.3 ng/mL
[7]; 1,500 μg/kg/hr, 14 day study
  lethality of larger infusion dose: minimally lethal
[7]; continuous infusion, 14 days
  tolerated continuous infusion dose: 420 µg/kg/h
[8]; plasma concentration maintained at no more than
  plasma concentration at which incidence of adverse side effects is minimal: no more than 5.5 ng/ml
[8]; plasma, human male subjects, nausea
  threshold concentration (Cmax) for onset of adverse effects: about 2.5 nanograms/milliliter
[8]; sublingual tablet, week 1
  threshold dose for most impotence patients: 2 mg
[9]; 0.2 mg/kg
  AUC: 5.45 ng·h/mL
[9]; po, 0.2 mg/kg
  AUC: 1.58 ng·h/mL
[9]; sc, 0.04 mg/kg
  AUC: 8.06 ng·h/mL
[10]; i.v. 1 mg
  MRT (mean residual time): 40.3 min
[10]; s.l. tablet 8 mg
  Vd (volume of distribution @ β stage): 2.07 L/kg
